Reference: patent publication US4594348A, “Use of some 2-[2-[4-phenyl-1-piperazinyl]ethyl]-1H-naphth-[1,2-D]imidazole derivatives and their pharmaceutically acceptable salts in the treatment of cardiovascular diseases” (Gruppo Lepetit S.p.A., priority 1984, dated 1986)

Experiments:
[1] = test system: conscious normotensive dogs; assay: Blood pressure in conscious normotensive dogs (oral); type: in vivo, dog (mongrel); conditions: for % systolic blood pressure variation: Table II, oral; for Mean systolic blood pressure / % Δ of mean systolic blood pressure: Table V, single oral 20 mg/kg
Description: (§1) As for the experiments with conscious normotensive dogs, mongrel dogs with incannulated abdominal aorta or with incannulated abdominal aorta and cardiac left ventricle were used. The compounds were administered by oral route as powder in gelatine capsules. Mean blood pressure (M.B.P.) was registered directly using a Bentley pressure transducer.

[2] = test system: conscious renal hypertensive dogs; assay: Systolic blood pressure in conscious renal hypertensive dogs (oral, Goldblatt's method); type: in vivo, dog (mongrel); conditions: for % systolic pressure variation: Table I; for % Δ (% variation of the S.B.P. over the basal value) / S.B.P. (systolic blood pressure): Table III; for S.B.P. (systolic blood pressure): mean ± SE
Description: The experiments herein described which use renal hypertensive dogs are conducted essentially as described in the above cited text.
(§2) More particularly, in the experiments with conscious renal hypertensive dogs, mongrel dogs with two clips on the renal arteries were used according to the Goldblatt's method. The compounds were administered by oral route as powder in gelatine capsules. Systolic blood pressure (SBP) was registered at the tail (indirect method).
^a S.B.P. = Systolic blood pressure. It is determined after oral
administration where three animals were employed for each dose. It is
expressed in mmHg as mean value ± SE.
^b % Δ = % variation of the S.B.P. over the basal value (time
0) at the indicated time after administration.

renal hypertensive dogs [3] = assay: Heart rate in renal hypertensive dogs; type: in vivo, dog (mongrel); conditions: experiments of Table III, oral
Description: as §2

renal hypertensive dogs [4] = assay: Tachiphylaxis experiment: daily oral administration for 7 consecutive days, systolic blood pressure; type: in vivo, dog; conditions: for % Δ of S.B.P., peak effect (7h) / S.B.P., basal value / S.B.P., peak effect (7h) / % Δ of S.B.P., basal value: Table IV, 10 mg/kg/die per os
[5] = test system: conscious normotensive dogs; assay: Myocardial contractility in conscious normotensive dogs; type: in vivo, dog (mongrel); conditions: single oral 20 mg/kg; for Myocardial contractility / % Δ of myocardial contractility: Table V
Description: as §1
Myocardial contractility was calculated as
1/P·dp/dt ^(max)
The results of this experiment, which was conducted after a single oral administration of 20 mg/kg of the test compound, are summarized below: […]

mice = assay: "running-fit" test (antagonism of the effects of morphine); type: in vivo, mouse; conditions: morphine 60 mg/Kg s.c.
Description: This test is conducted essentially as described in the literature.

[6] = Acute toxicity (LD50) in mice; conditions: mouse, in vivo
Description: The LD50 values of the compounds of the invention are generally higher than 500 mg/kg when given per os and generally higher than 200-300 mg/kg when given intraperitoneally to mice. In particular, the approximate LD50 values for compound 3 in mice were 1000 mg/kg after oral administration and 600 mg/kg after i.p. administration. […] Representative experiments were conducted essentially as described by B. N. Ames, J. McCann., E. Yamasaki, "Methods for detecting carcinogens and mutagens with the salmonella/microsome mutagenicy test" in Mutation Research, 31, 347-364, (1975).

renal hypertensive dogs [7] = assay: CNS depressant effect and tachycardia during prolonged (7-day) treatment in dogs; type: in vivo, dog; conditions: per os 10 mg/kg/die, 7 days
mongrel dogs [8] = conditions: dog, in vivo
Beagle dogs = conditions: dog, in vivo, po
mongrel dogs [9] = assay: CNS-depressant activity in mongrel dogs (oral); conditions: 100 mg/kg

SMILES: CC(C)n1c(CCN2CCN(c3ccccc3)CC2)nc2ccc3ccccc3c21 [Compound 1, 2-[2-(4-phenyl-1-piperazinyl)ethyl]-1-(1-methylethyl)-1H-naphth[1,2-d]imidazole]
- % systolic blood pressure variation ([1]; 1 mg/kg): -17%
- % systolic blood pressure variation ([1]; 5 mg/kg): -37%

SMILES: Cn1c(CCN2CCN(c3ccccc3)CC2)nc2ccc3ccccc3c21 [Compound 2, 2-[2-(4-phenyl-1-piperazinyl)ethyl]-1-methyl-1H-naphth-[1,2-d]imidazole]
- % systolic pressure variation ([2]; renal hypertensive dogs, oral, 10 mg/kg): -32%
- % systolic blood pressure variation ([1]; 10 mg/kg): -30%

SMILES: CC(C)n1c(CCN2CCN(c3cccc(C(F)(F)F)c3)CC2)nc2ccc3ccccc3c21.O=C(O)CC(O)(CC(=O)O)C(=O)O [Compound 3, 2-[2-[4-(3-trifluoromethylphenyl)-1-piperazinyl]ethyl]-1-(1-methylethyl)-1H-naphth[1,2-d]imidazole, 2-hydroxy-1,2,3-propantricarboxylate]
- minimal effective dose ([2]; Canis lupus familiaris, po, read-out: dose active in reducing the systolic blood pressure): ≤ 5 mg/kg
- % systolic pressure variation ([2]; renal hypertensive dogs, oral, 20 mg/kg): -24%
- % systolic pressure variation ([2]; renal hypertensive dogs, oral, 30 mg/kg): -20%
- % Δ (% variation of the S.B.P. over the basal value) ([2]; oral 5 mg/kg, 1 h): -3%
- S.B.P. (systolic blood pressure) ([2]; oral 5 mg/kg, 1 h): 205 ± 5 mmHg
- % Δ (% variation of the S.B.P. over the basal value) ([2]; oral 5 mg/kg, 3 h): -10%
- S.B.P. (systolic blood pressure) ([2]; oral 5 mg/kg, 3 h): 190 ± 5 mmHg
- % Δ (% variation of the S.B.P. over the basal value) ([2]; oral 5 mg/kg, 5 h): -12%
- S.B.P. (systolic blood pressure) ([2]; oral 5 mg/kg, 5 h): 185 ± 7 mmHg
- % Δ (% variation of the S.B.P. over the basal value) ([2]; oral 5 mg/kg, 7 h): -10%
- S.B.P. (systolic blood pressure) ([2]; oral 5 mg/kg, 7 h): 190 ± 4 mmHg
- S.B.P. (systolic blood pressure) ([2]; oral 5 mg/kg, time 0 h (basal value), 3 animals): 210 ± 7 mmHg
- % Δ (% variation of the S.B.P. over the basal value) ([2]; oral 10 mg/kg, 1 h): -8%
- S.B.P. (systolic blood pressure) ([2]; oral 10 mg/kg, 1 h): 190 ± 4 mmHg
- % Δ (% variation of the S.B.P. over the basal value) ([2]; oral 10 mg/kg, 3 h): -13%
- S.B.P. (systolic blood pressure) ([2]; oral 10 mg/kg, 3 h): 180 ± 7 mmHg
- % Δ (% variation of the S.B.P. over the basal value) ([2]; oral 10 mg/kg, 5 h): -22%
- S.B.P. (systolic blood pressure) ([2]; oral 10 mg/kg, 5 h): 160 ± 10 mmHg
- % Δ (% variation of the S.B.P. over the basal value) ([2]; oral 10 mg/kg, 7 h): -18%
- S.B.P. (systolic blood pressure) ([2]; oral 10 mg/kg, 7 h): 170 ± 8 mmHg
- S.B.P. (systolic blood pressure) ([2]; oral 10 mg/kg, time 0 h (basal value)): 205 ± 7 mmHg
- % Δ (% variation of the S.B.P. over the basal value) ([2]; oral 20 mg/kg, 1 h): -8%
- S.B.P. (systolic blood pressure) ([2]; oral 20 mg/kg, 1 h): 175 ± 7 mmHg
- % Δ (% variation of the S.B.P. over the basal value) ([2]; oral 20 mg/kg, 3 h): -14%
- S.B.P. (systolic blood pressure) ([2]; oral 20 mg/kg, 3 h): 165 ± 8 mmHg
- % Δ (% variation of the S.B.P. over the basal value) ([2]; oral 20 mg/kg, 5 h): -27%
- S.B.P. (systolic blood pressure) ([2]; oral 20 mg/kg, 5 h): 140 ± 7 mmHg
- % Δ (% variation of the S.B.P. over the basal value) ([2]; oral 20 mg/kg, 7 h): -32%
- S.B.P. (systolic blood pressure) ([2]; oral 20 mg/kg, 7 h): 130 ± 7 mmHg
- S.B.P. (systolic blood pressure) ([2]; oral 20 mg/kg, time 0 h (basal value)): 190 ± 8 mmHg
- duration of the reduction of the blood pressure ([2]; renal hypertensive dogs, oral): still present seven hours after administration
- % systolic blood pressure variation ([1]; 10 mg/kg): -16%
- % systolic blood pressure variation ([1]; 20 mg/kg): -15%
- Mean systolic blood pressure ([1]; 0 min (basal)): 120 mmHg
- % Δ of mean systolic blood pressure ([1]; 60 min): -0%
- Mean systolic blood pressure ([1]; 60 min): 120 mmHg
- % Δ of mean systolic blood pressure ([1]; 120 min): -12%
- Mean systolic blood pressure ([1]; 120 min): 106 mmHg
- % Δ of mean systolic blood pressure ([1]; 180 min): -15%
- Mean systolic blood pressure ([1]; 180 min): 102 mmHg
- % Δ of mean systolic blood pressure ([1]; 300 min): -17%
- Mean systolic blood pressure ([1]; 300 min): 100 mmHg
- % Δ of mean systolic blood pressure ([1]; 360 min): -12%
- Mean systolic blood pressure ([1]; 360 min): 106 mmHg
- heart rate (renal hypertensive dogs [3]): no increase in the heart rate was observed but only a slight and transient decrease
- % Δ of S.B.P., peak effect (7h) (renal hypertensive dogs [4]; day 1 of treatment): -20%
- S.B.P., basal value (renal hypertensive dogs [4]; day 1 of treatment): 210 mmHg
- S.B.P., peak effect (7h) (renal hypertensive dogs [4]; day 1 of treatment): 170 mmHg
- % Δ of S.B.P., basal value (renal hypertensive dogs [4]; day 3 of treatment): -5%
- % Δ of S.B.P., peak effect (7h) (renal hypertensive dogs [4]; day 3 of treatment): -20%
- S.B.P., basal value (renal hypertensive dogs [4]; day 3 of treatment): 200 mmHg
- S.B.P., peak effect (7h) (renal hypertensive dogs [4]; day 3 of treatment): 170 mmHg
- % Δ of S.B.P., basal value (renal hypertensive dogs [4]; day 5 of treatment): -12%
- % Δ of S.B.P., peak effect (7h) (renal hypertensive dogs [4]; day 5 of treatment): -24%
- S.B.P., basal value (renal hypertensive dogs [4]; day 5 of treatment): 185 mmHg
- S.B.P., peak effect (7h) (renal hypertensive dogs [4]; day 5 of treatment): 160 mmHg
- % Δ of S.B.P., basal value (renal hypertensive dogs [4]; day 7 of treatment): -15%
- % Δ of S.B.P., peak effect (7h) (renal hypertensive dogs [4]; day 7 of treatment): -29%
- S.B.P., basal value (renal hypertensive dogs [4]; day 7 of treatment): 180 mmHg
- S.B.P., peak effect (7h) (renal hypertensive dogs [4]; day 7 of treatment): 150 mmHg
- tachiphylaxis (renal hypertensive dogs [4]; per os daily for 7 consecutive days, 10 mg/kg/die): proved not to induce tachiphylaxis
- Myocardial contractility ([5]; 0 min (basal)): 48 mmHg sec^-1
- % Δ of myocardial contractility ([5]; 60 min): +10%
- Myocardial contractility ([5]; 60 min): 53 mmHg sec^-1
- % Δ of myocardial contractility ([5]; 120 min): +12%
- Myocardial contractility ([5]; 120 min): 54 mmHg sec^-1
- % Δ of myocardial contractility ([5]; 180 min): +10%
- Myocardial contractility ([5]; 180 min): 53 mmHg sec^-1
- % Δ of myocardial contractility ([5]; 300 min): +12%
- Myocardial contractility ([5]; 300 min): 54 mmHg sec^-1
- % Δ of myocardial contractility ([5]; 360 min): +6%
- Myocardial contractility ([5]; 360 min): 51 mmHg sec^-1
- effect on myocardial contractility (in words) ([5]; conscious normotensive dogs): proved not to reduce the myocardial contractility
- antagonism of morphine in "running-fit" test (mice; 30 mg i.p.): inactive
- antagonism of morphine in "running-fit" test (mice; 60 mg per os): inactive
- LD50 ([6]; ip, intraperitoneal): ~600 mg/kg
- LD50 ([6]; po, per os): ~1000 mg/kg
- CNS depressant effect during the prolonged treatment (renal hypertensive dogs [7]): no tachycardia or CNS depressant effect was observed
- tachycardia during the prolonged treatment (renal hypertensive dogs [7]): no tachycardia
- dose beginning CNS-depressant activity relative to effective antihypertensive dose (mongrel dogs [8]): at least about ten times higher
- dose at which signs of CNS-depression begin (mongrel dogs [8]; po): 100 mg/kg
- dose at which CNS-depressant effects begin (Beagle dogs): higher than 100 mg/kg
- signs of CNS-depression (mongrel dogs [9]): slight sedation and very slight motor incoordination
